Key:
[1] = tested on: ground ivy (Glechoma hederacea); test: Post-emergent herbicidal evaluation on turf plots, ground ivy control; assay type: in vivo
Description: (§1) Test compositions containing sulfentrazone (Dismiss™ Turf Herbicide), metsulfuron methyl (BLADE™ Selective Herbicide For Turfgrass) and mixtures thereof, were diluted with water to provide the appropriate test rate concentrations.
(§2) The size of each experimental turf plot was 5 feet by 10 feet. The application of each test composition was performed with a pressurized back-pack sprayer, calibrated to spray 30 gallons per acre. Three replications were made for each test rate along with an untreated control plot.
(§3) Test weeds were about 3 inches tall at the time of treatment. Control of ground ivy (Glechoma hederacea) and field violet (Viola arvensis) was evaluated at 6, 14, 28, 40 and 55 days after treatment (DAT) for each test rate. In order t to provide a measure of the effectiveness of a herbicide's performance weed control ratings were based on visual observations of the presence or absence of various weeds or of symptoms (necrosis, wilting, curling of leaves, discoloration etc.) on weeds compared to lack of symptoms. Ratings are based on the 0 to 100 rating system, where 0 equals no control and 100 equals complete control, which generally makes use of direct-percentage figures. In this system the standard basis for comparison is an untreated weedy check. Counts are made of each weed species found in the untreated area of the study. This provides a basis to give a precise representation of both weed infestation and degree of control provided by various chemical treatments. Counts are made on randomly selected areas which are generally 1 square foot to 1 square yard in size. Ratings are made for each weed species found in the untreated treatments. For example, a random area in an untreated plot has 10 yellow nutsedge plants per square foot equaling 0% control. A treated plot has only 1 yellow nutsedge plant found in the randomly selected area equaling 90% control.
(§4) Compositions of the present invention were tested for herbicidal efficacy in the manner of Example 1. Table A below summarizes the test data for ratios of sulfentrazone to metsulfuron methyl that are outside the scope of the present invention. The Colby equation expected values are also in Table A.

[2] = tested on: field violet (Viola arvensis); test: Post-emergent herbicidal evaluation on turf plots, wild violet control; assay type: in vivo
Description: as §1, §2, §3, §4

[3] = 0.01 lb/ac, 6 DAT, NIS 0.25% V/V
[4] = 0.01 lb/ac, 14 DAT, NIS 0.25% V/V
[5] = 0.01 lb/ac, 28 DAT, NIS 0.25% V/V
[6] = 0.01 lb/ac, 40 DAT, NIS 0.25% V/V
[7] = 0.01 lb/ac, 55 DAT, NIS 0.25% V/V
[8] = 0.02 lb/ac, 6 DAT, NIS 0.25% V/V
[9] = 0.02 lb/ac, 14 DAT, NIS 0.25% V/V
[10] = 0.02 lb/ac, 28 DAT, NIS 0.25% V/V
[11] = 0.02 lb/ac, 40 DAT, NIS 0.25% V/V
[12] = 0.02 lb/ac, 55 DAT, NIS 0.25% V/V
[13] = 0.04 lb/ac, 6 DAT, NIS 0.25% V/V
[14] = 0.04 lb/ac, 14 DAT, NIS 0.25% V/V
[15] = 0.04 lb/ac, 28 DAT, NIS 0.25% V/V
[16] = 0.04 lb/ac, 40 DAT, NIS 0.25% V/V
[17] = 0.04 lb/ac, 55 DAT, NIS 0.25% V/V

Structure (SMILES): COC(=O)c1ccccc1S(=O)(=O)NC(=O)Nc1nc(C)nc(OC)n1 [Metsulfuron Methyl, methyl 2-[[[[(4-methoxy-6-methyl-1,3,5-triazin-2-yl)amino]carbonyl]amino]sulfonyl]benzoate]
- % Control of Weeds, Ground Ivy Control [1, 3]: 5%
- % Control of Weeds, Ground Ivy Control [1, 4]: 33%
- % Control of Weeds, Ground Ivy Control [1, 5]: 83%
- % Control of Weeds, Ground Ivy Control [1, 6]: 96%
- % Control of Weeds, Ground Ivy Control [1, 7]: 97%
- % Control of Weeds, Ground Ivy Control [1, 8]: 0%
- % Control of Weeds, Ground Ivy Control [1, 9]: 20%
- % Control of Weeds, Ground Ivy Control [1, 10]: 75%
- % Control of Weeds, Ground Ivy Control [1, 11]: 94%
- % Control of Weeds, Ground Ivy Control [1, 12]: 100%
- % Control of Weeds, Ground Ivy Control [1, 13]: 0%
- % Control of Weeds, Ground Ivy Control [1, 14]: 36.7%
- % Control of Weeds, Ground Ivy Control [1, 15]: 90%
- % Control of Weeds, Ground Ivy Control [1, 16]: 97%
- % Control of Weeds, Ground Ivy Control [1, 17]: 100%
- % Control of Weeds, Wild Violet Control [2, 3]: 0%
- % Control of Weeds, Wild Violet Control [2, 4]: 0%
- % Control of Weeds, Wild Violet Control [2, 5]: 58.3%
- % Control of Weeds, Wild Violet Control [2, 6]: 63.3%
- % Control of Weeds, Wild Violet Control [2, 7]: 66.7%
- % Control of Weeds, Wild Violet Control [2, 8]: 0%
- % Control of Weeds, Wild Violet Control [2, 9]: 3.3%
- % Control of Weeds, Wild Violet Control [2, 10]: 50%
- % Control of Weeds, Wild Violet Control [2, 11]: 75%
- % Control of Weeds, Wild Violet Control [2, 12]: 86.7%
- % Control of Weeds, Wild Violet Control [2, 13]: 0%
- % Control of Weeds, Wild Violet Control [2, 14]: 0%
- % Control of Weeds, Wild Violet Control [2, 15]: 51.7%
- % Control of Weeds, Wild Violet Control [2, 16]: 66.7%
- % Control of Weeds, Wild Violet Control [2, 17]: 66.7%

Structure (SMILES): Cc1nn(-c2cc(NS(C)(=O)=O)c(Cl)cc2Cl)c(=O)n1C(F)F [Sulfentrazone, N-[2,4-dichloro-5-[4-difluoromethyl-4,5-dihydro-3-methyl-5-oxo-1H-1,2,4-triazol-1-yl]phenyl]methanesulfonamide]
- % Control of Weeds, Ground Ivy Control ([1]; 0.125 lb/ac, 6 DAT): 11.7%
- % Control of Weeds, Ground Ivy Control ([1]; 0.125 lb/ac, 14 DAT): 10%
- % Control of Weeds, Ground Ivy Control ([1]; 0.125 lb/ac, 28 DAT): 0%
- % Control of Weeds, Ground Ivy Control ([1]; 0.125 lb/ac, 40 DAT): 0%
- % Control of Weeds, Ground Ivy Control ([1]; 0.125 lb/ac, 55 DAT): 0%
- % Control of Weeds, Ground Ivy Control ([1]; 0.25 lb/ac, 6 DAT): 10%
- % Control of Weeds, Ground Ivy Control ([1]; 0.25 lb/ac, 14 DAT): 13.3%
- % Control of Weeds, Ground Ivy Control ([1]; 0.25 lb/ac, 28 DAT): 0%
- % Control of Weeds, Ground Ivy Control ([1]; 0.25 lb/ac, 40 DAT): 0%
- % Control of Weeds, Ground Ivy Control ([1]; 0.25 lb/ac, 55 DAT): 0%
- % Control of Weeds, Ground Ivy Control ([1]; 0.38 lb/ac, 6 DAT): 11.7%
- % Control of Weeds, Ground Ivy Control ([1]; 0.38 lb/ac, 14 DAT): 6.7%
- % Control of Weeds, Ground Ivy Control ([1]; 0.38 lb/ac, 28 DAT): 3.3%
- % Control of Weeds, Ground Ivy Control ([1]; 0.38 lb/ac, 40 DAT): 0%
- % Control of Weeds, Ground Ivy Control ([1]; 0.38 lb/ac, 55 DAT): 0%
- % Control of Weeds, Wild Violet Control ([2]; 0.125 lb/ac, 6 DAT): 5%
- % Control of Weeds, Wild Violet Control ([2]; 0.125 lb/ac, 14 DAT): 0%
- % Control of Weeds, Wild Violet Control ([2]; 0.125 lb/ac, 28 DAT): 0%
- % Control of Weeds, Wild Violet Control ([2]; 0.125 lb/ac, 40 DAT): 0%
- % Control of Weeds, Wild Violet Control ([2]; 0.125 lb/ac, 55 DAT): 0%
- % Control of Weeds, Wild Violet Control ([2]; 0.25 lb/ac, 6 DAT): 5%
- % Control of Weeds, Wild Violet Control ([2]; 0.25 lb/ac, 14 DAT): 0%
- % Control of Weeds, Wild Violet Control ([2]; 0.25 lb/ac, 28 DAT): 0%
- % Control of Weeds, Wild Violet Control ([2]; 0.25 lb/ac, 40 DAT): 0%
- % Control of Weeds, Wild Violet Control ([2]; 0.25 lb/ac, 55 DAT): 0%
- % Control of Weeds, Wild Violet Control ([2]; 0.38 lb/ac, 6 DAT): 1.7%
- % Control of Weeds, Wild Violet Control ([2]; 0.38 lb/ac, 14 DAT): 0%
- % Control of Weeds, Wild Violet Control ([2]; 0.38 lb/ac, 28 DAT): 10%
- % Control of Weeds, Wild Violet Control ([2]; 0.38 lb/ac, 40 DAT): 0%
- % Control of Weeds, Wild Violet Control ([2]; 0.38 lb/ac, 55 DAT): 23.3%

Reference: patent publication US8119564B2, “Herbicidal control using sulfentrazone and metsulfuron” (FMC Corporation, priority 2009, dated 2012)
